# Laboratory results published in ChEMBL document CHEMBL5223124, “Recent applications of covalent chemistries in protein-protein interaction inhibitors” (RSC Med Chem, 2022).
# Assays:
# [1] = molecular target: Induced myeloid leukemia cell differentiation protein Mcl-1 (Homo sapiens, UniProt Q07820); assay: Inhibition of MCL-1 in human MOLP8 cells assessed as increase in caspase 3/7 activation; format: cell-based
# [2] = molecular target: E3 ubiquitin-protein ligase Mdm2 (Homo sapiens, UniProt Q00987); assay: Binding affinity to HDM2 (unknown origin)
# E3 ubiquitin-protein ligase Mdm2, sequence (Q00987 whole entry): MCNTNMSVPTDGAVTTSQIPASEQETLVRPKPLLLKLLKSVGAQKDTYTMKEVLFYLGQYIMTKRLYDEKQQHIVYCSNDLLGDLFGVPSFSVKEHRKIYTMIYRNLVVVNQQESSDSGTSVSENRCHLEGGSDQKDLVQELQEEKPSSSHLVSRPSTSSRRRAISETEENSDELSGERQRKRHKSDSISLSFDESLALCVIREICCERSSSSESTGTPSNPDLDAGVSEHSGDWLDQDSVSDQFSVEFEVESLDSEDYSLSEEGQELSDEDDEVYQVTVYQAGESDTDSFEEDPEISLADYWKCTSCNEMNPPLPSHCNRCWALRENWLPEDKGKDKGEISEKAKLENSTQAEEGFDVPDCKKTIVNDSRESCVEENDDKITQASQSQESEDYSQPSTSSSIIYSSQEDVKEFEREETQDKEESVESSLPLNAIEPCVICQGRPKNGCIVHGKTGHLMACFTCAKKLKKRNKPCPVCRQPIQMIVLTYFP
# Induced myeloid leukemia cell differentiation protein Mcl-1, sequence (Q07820 whole entry): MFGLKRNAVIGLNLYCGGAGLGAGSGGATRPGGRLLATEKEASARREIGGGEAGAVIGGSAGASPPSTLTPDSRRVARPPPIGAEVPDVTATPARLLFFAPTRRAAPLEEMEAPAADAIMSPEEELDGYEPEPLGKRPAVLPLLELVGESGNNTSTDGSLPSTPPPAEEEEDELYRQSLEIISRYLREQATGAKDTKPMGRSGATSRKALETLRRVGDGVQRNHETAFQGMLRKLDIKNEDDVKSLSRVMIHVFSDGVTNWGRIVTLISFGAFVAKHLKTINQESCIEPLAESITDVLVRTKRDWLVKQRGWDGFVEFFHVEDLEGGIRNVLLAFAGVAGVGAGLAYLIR
Compound,EC50 [1],Kd [2]
Cc1c(-c2cccc3c(CCCOc4cccc5ccccc45)c(C(=O)O)[nH]c23)c(COc2cccc(C=O)c2)nn1C,> 11000 nM,
CC(=O)c1cc(OCc2nn(C)c(C)c2-c2cccc3c(CCCOc4cccc5ccccc45)c(C(=O)O)[nH]c23)ccc1B(O)O,1170 nM,
Cc1c(-c2cccc3c(CCCOc4cccc5ccccc45)c(C(=O)O)n(C)c23)c(COc2ccc(B(O)O)c(C=O)c2)nn1C,75 nM,
Cc1c(-c2cccc3c(CCCOc4cccc5ccccc45)c(C(=O)O)[nH]c23)c(COc2ccc(B(O)O)c(C=O)c2)nn1C,460 nM,
COc1ccc(C2=NC(c3ccc(Cl)cc3)C(c3ccc(Cl)cc3)N2C(=O)N2CCN(C(=O)CCCNC(=O)CCCC(=O)N(CC#N)S(=O)(=O)c3ccccc3)CC2)c(OC(C)C)c1 (centres undefined),,570 nM
CC(=O)c1cccc(OCc2nn(C)c(C)c2-c2cccc3c(CCCOc4cccc5ccccc45)c(C(=O)O)[nH]c23)c1,2700 nM,
Cc1c(-c2cccc3c(CCCOc4cccc5ccccc45)c(C(=O)O)[nH]c23)c(COc2ccccc2)nn1C,> 11000 nM,
Cc1c(-c2cccc3c(CCCOc4cccc5ccccc45)c(C(=O)O)[nH]c23)c(COc2ccc(B(O)O)cc2)nn1C,> 11000 nM,
CCc1nn(C)c(CC)c1-c1cccc2c(CCCOc3cccc4ccccc34)c(C(=O)O)n(CCN3CCOCC3)c12,340 nM,
